These results are taken from US20170258711A1, “Fatty Acid Acylated D-Amino Acids for Oral Peptide Delivery” (Novo Nordisk A/S, priority 2012, published 2017).

In this data set the test system is Caco-2 cells. As to the kind of experiment: Transepithelial electrical resistance (TEER) of Caco-2 cell monolayers. It is filed as cell-based. On the set-up: unit not given here. To be noted: for TEER 24 h: 24 h after experiment. The procedure:
Caco-2 cells were obtained from the American Type Culture Collection (Manassas, Va.). Cells were seeded in culturing flasks and passaged in Dulbecco's Modified Eagle′ medium supplemented with 10% fetal bovine serum, 1% penicillin/streptomycin (100 U/ml and 100 μg/ml, respectively), 1% L-glutamine and 1% nonessential amino acids. Caco-2 cells were seeded onto tissue culture treated polycarbonate filters in 12-well Transwell plates (1.13 cm2, 0.4 μm pore size) at a density of 10^5 cells/well. Monolayers were grown in an atmosphere of 5% CO2-95% O2 at 37° C. Growth media were replaced every other day. The experiment was performed on day 10-14 after seeding of Caco-2 cells.
Before and during the experiment the transepithelial electrical resistance (TEER) of the cell monolayers was monitored. In selected experiments, the transport buffer were changed to culturing medium after end of experiment and the TEER measured 24 h after experiment. The TEER was measured with EVOM™ Epithelial Voltohmmeter connected to Chopsticks.

[1] abbreviates: Table 9, insulin analogue A14E, B25H, B29K(N(eps)Octadecanedioyl-gGlu-OEG-OEG), desB30 human insulin + 0.5 mM fatty acid acylated amino acid.
Where [2] appears, read: Table 12, comparison D- with L-counterparts, footnote: insulin analogue A1(Nα,Nα-Dimethyl), A14E, B1(Nα,Nα-dimethyl), B25H, B29K(N(eps)Octadecanedioyl-gGlu-OEG-OEG), desB30 human insulin.
The mark [3] stands for this setting: Table 12, comparison D- with L-counterparts.
Where [4] appears, read: Table 10, L-amino acid counterparts.
[5] abbreviates: Table 11, insulin analogue A1(Nα,Nα-Dimethyl), A14E, B1(Nα,Nα-dimethyl), B25H, B29K(N(eps)Octadecanedioyl-gGlu-OEG-OEG), desB30 human insulin.
The mark [6] stands for this setting: Table 10, L-amino acid counterparts, insulin analogue A14E, B25H, B29K(N(eps)Octadecanedioyl-gGlu-OEG-OEG), desB30 human insulin.

For `CCCCCCCCCC(=O)N[C@H](CC(C)C)C(=O)O` [N-decanoyl-D-leucine], the “TEER 60 min” value under setting [1] stood at 93.8 and the “TEER 60 min” value under setting [2] was 93.8. For the same compound, the “TEER 24 h” value runs as follows: (Table 9, in culturing medium) 100.3; under setting [3], 100.3.
As to `CCCCCCCCCC(=O)N[C@H](C(=O)O)[C@@H](C)CC` [N-decanoyl-L-isoleucine, reference compound], the “TEER 60 min” value under setting [2] is 58.3. In addition, the “TEER 24 h” value under setting [3] turned out to be 102.4.
`CCCCCCCCCC(=O)N[C@@H](CC(C)C)C(=O)O` [N-decanoyl-L-leucine, reference compound]: the “TEER 24 h” value is, setting by setting: under setting [4], 101.8; (Table 10, L-amino acid counterparts, listed as N-decanoyl-L-Leucine) 102.4; under setting [3], 101.8. The “TEER 60 min” value under setting [2] was found to be 92.2.
On to `CCCCCCCCCCCC(=O)N[C@@H](C(=O)O)[C@H](C)CC` [N-dodecanoyl-D-isoleucine], for which the “TEER 60 min” value under setting [2] is 48.3. The “TEER 24 h” value under setting [3] is recorded as 101.4.
For the compound `CCCCCCCCCCCC(=O)N[C@H](CC(C)C)C(=O)O` [N-dodecanoyl-D-leucine], the “TEER 24 h” value (Table 9, in culturing medium) stood at 100.0; the “TEER 24 h” value (Table 9, in culturing medium, listed as N-dodecanoyl-D-Leucine) came out at 101.4; the “TEER 24 h” value under setting [5] is 91.4; the “TEER 24 h” value under setting [3] is 100. For the same compound, the “TEER 60 min” value is, setting by setting: under setting [5], 50.9; under setting [2], 42.8.
Regarding `CCCCCCCCCCCC(=O)N[C@H](Cc1ccccc1)C(=O)O` [N-dodecanoyl-D-phenylalanine], the “TEER 60 min” value runs as follows: under setting [1], 37.6; under setting [2], 37.6. The “TEER 24 h” value was 108.4 (Table 9, in culturing medium) and 108.4 under setting [3].
For `CCCCCCCCCCCC(=O)N1CCC[C@@H]1C(=O)O` [N-dodecanoyl-D-proline], the “TEER 60 min” value turned out to be 76.6 under setting [1] and 76.6 under setting [2]. The “TEER 24 h” value was 99.1 (Table 9, in culturing medium) and 99.1 under setting [3].
As for `CCCCCCCCCCCC(=O)N[C@@H](C(=O)O)C(C)C` [N-dodecanoyl-D-valine], the “TEER 60 min” value is, setting by setting: under setting [1], 66.1; under setting [2], 66.1. The “TEER 24 h” value runs as follows: (Table 9, in culturing medium) 99.3; under setting [3], 99.3.
Consider `CCCCCCCCCCCC(=O)N[C@@H](CC(C)C)C(=O)O` [N-dodecanoyl-L-leucine, reference compound], for which the “TEER 60 min” value under setting [6] is given as 47.8, the “TEER 60 min” value under setting [5] is reported as 57.4 and the “TEER 60 min” value under setting [2] is 47.8. Besides, the “TEER 24 h” value under setting [4] was found to be 107.9, the “TEER 24 h” value under setting [5] is recorded as 91.7 and the “TEER 24 h” value under setting [3] amounted to 107.9.
On to `CCCCCCCCCCCC(=O)N[C@@H](Cc1ccccc1)C(=O)O` [N-dodecanoyl-L-phenylalanine, reference compound], for which the “TEER 60 min” value is listed as 36.6 under setting [6] and 36.6 under setting [2]. For the same compound, the “TEER 24 h” value is, setting by setting: under setting [4], 100.4; under setting [3], 100.4.
For `CCCCCCCCCCCC(=O)N[C@H](C(=O)O)C(C)C` [N-dodecanoyl-L-valine, reference compound], the “TEER 60 min” value is listed as 79.7 under setting [6] and 79.7 under setting [2]. In addition, the “TEER 24 h” value stood at 95.3 under setting [4] and 95.3 under setting [3].
As for `CCCCCCCCCCCCCCCC(=O)N[C@H](CC(=O)O)C(=O)O` [N-hexadecanoyl-D-aspartic acid], the “TEER 60 min” value under setting [1] came to 24.1, the “TEER 60 min” value under setting [5] was determined as 74.7 and the “TEER 60 min” value under setting [2] amounted to 24.1. Further, the “TEER 24 h” value runs as follows: (Table 9, in culturing medium) 112.2; under setting [5], 87.0; under setting [3], 112.2.
Consider `CCCCCCCCCCCCCCCC(=O)N[C@H](CCC(=O)O)C(=O)O` [N-hexadecanoyl-D-glutamic acid], for which the “TEER 60 min” value by setting is: under setting [1], 35.6; under setting [2], 35.6. For the same compound, the “TEER 24 h” value reads like this: (Table 9, in culturing medium) 106.2; under setting [3], 106.2.
Take `CCCCCCCCCCCCCCCC(=O)N[C@@H](CC(=O)O)C(=O)O` [N-hexadecanoyl-L-aspartic acid, reference compound]: the “TEER 60 min” value by setting is: under setting [6], 33.2; under setting [5], 76.0; under setting [2], 33.2. Besides, the “TEER 24 h” value is given as 112.3 under setting [4], 97.2 under setting [5] and 112.3 under setting [3].
For the compound `CCCCCCCCCCCCCCCC(=O)N[C@@H](CCC(=O)O)C(=O)O` [N-hexadecanoyl-L-glutamic acid, reference compound], the “TEER 60 min” value runs as follows: under setting [6], 72.3; under setting [2], 72.3. Besides, the “TEER 24 h” value under setting [4] was 109.5 and the “TEER 24 h” value under setting [3] was found to be 109.5.
`CCCCCCCCCCCCCC(=O)N[C@H](CC(=O)O)C(=O)O` [N-tetradecanoyl-D-aspartic acid]: the “TEER 60 min” value was found to be 74.2 under setting [1] and 74.2 under setting [2]. Moreover, the “TEER 24 h” value came to 96.1 (Table 9, in culturing medium) and 96.1 under setting [3].
As to `CCCCCCCCCCCCCC(=O)N[C@H](CCC(=O)O)C(=O)O` [N-tetradecanoyl-D-glutamic acid], the “TEER 60 min” value was 79.9 ± 2.9^¤ under setting [1] and 79.9 ± 2.9^¤ under setting [2]. The “TEER 24 h” value (Table 9, in culturing medium) was 102.2 ± 1.9^¤ and the “TEER 24 h” value under setting [3] is 102.2 ± 1.9^¤.
`CCCCCCCCCCCCCC(=O)N[C@H](Cc1c[nH]c2ccccc12)C(=O)O` [N-tetradecanoyl-D-tryptophan]: the “TEER 60 min” value by setting is: under setting [1], 31.3; under setting [2], 31.3. In addition, the “TEER 24 h” value (Table 9, in culturing medium) came to 109.9 and the “TEER 24 h” value under setting [3] is 109.9.
As to `CCCCCCCCCCCCCC(=O)N[C@H](Cc1ccc(O)cc1)C(=O)O` [N-tetradecanoyl-D-tyrosine], the “TEER 60 min” value is 44.4 under setting [1] and 44.4 under setting [2]. The “TEER 24 h” value is, setting by setting: (Table 9, in culturing medium) 125.3; under setting [3], 125.3.
Consider `CCCCCCCCCCCCCC(=O)N[C@@H](CC(=O)O)C(=O)O` [N-tetradecanoyl-L-aspartic acid, reference compound], for which the “TEER 60 min” value runs as follows: under setting [6], 77.1; under setting [2], 77.1. Moreover, the “TEER 24 h” value is, setting by setting: under setting [4], 100.2; under setting [3], 100.2.
Take `CCCCCCCCCCCCCC(=O)N[C@@H](CCC(=O)O)C(=O)O` [N-tetradecanoyl-L-glutamic acid, reference compound]: the “TEER 60 min” value under setting [6] is 82.0 ± 3.2^¤ and the “TEER 60 min” value under setting [2] is 82.0 ± 3.2^¤. Further, the “TEER 24 h” value is, setting by setting: under setting [4], 103.1 ± 3.7^¤; under setting [3], 103.1 ± 3.7^¤.
Take `CCCCCCCCCCCCCC(=O)N[C@@H](Cc1c[nH]c2ccccc12)C(=O)O` [N-tetradecanoyl-L-tryptophan, reference compound]: the “TEER 60 min” value reads like this: under setting [6], 27.8; under setting [2], 27.8. Moreover, the “TEER 24 h” value is, setting by setting: under setting [4], 107.9; under setting [3], 107.9.
For `CCCCCCCCCCCCCC(=O)N[C@@H](Cc1ccc(O)cc1)C(=O)O` [N-tetradecanoyl-L-tyrosine, reference compound], the “TEER 60 min” value came to 41.9 under setting [6] and 41.9 under setting [2]. Also, the “TEER 24 h” value amounted to 122.3 under setting [4] and 122.3 under setting [3].
